Measured values published in article PMC9867029, “Effect of Salts on the Conformational Dynamics of the Cytochrome P450 OleP” (Molecules, 2023).

Target: T1, OleP (CYP107D1) (Streptomyces antibioticus, UniProt Q59819)
T1 sequence (Q59819 1-407): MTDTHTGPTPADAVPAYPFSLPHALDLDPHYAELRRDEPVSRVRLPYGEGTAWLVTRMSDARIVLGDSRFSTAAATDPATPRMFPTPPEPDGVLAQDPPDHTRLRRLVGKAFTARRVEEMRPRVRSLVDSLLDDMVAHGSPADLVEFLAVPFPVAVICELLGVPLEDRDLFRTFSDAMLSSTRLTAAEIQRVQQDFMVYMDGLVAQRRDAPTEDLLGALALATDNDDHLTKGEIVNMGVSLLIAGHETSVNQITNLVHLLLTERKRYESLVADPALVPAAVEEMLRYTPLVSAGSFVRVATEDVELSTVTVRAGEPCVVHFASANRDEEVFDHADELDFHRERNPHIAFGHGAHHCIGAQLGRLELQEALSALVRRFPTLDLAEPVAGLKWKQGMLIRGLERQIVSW
Test: UV-visible Soret spectral titration (type I shift), global hyperbolic fit
Assay type: binding
Text: UV-visible Soret spectral titration (type I shift), global hyperbolic fit on OleP (CYP107D1)

Structure (SMILES): CC[C@H]1OC(=O)[C@H](C)[C@@H](O)[C@H](C)[C@@H](O)[C@@H](C)C[C@@H](C)C(=O)[C@H](C)[C@@H](O)[C@H]1C [6DEB]
- Kd: 3.83 ± 0.06 µM
